Results taken from publication PMC4596473 (PLoS ONE, 2015).
Entries after “also recorded” stand apart in the source; their conditions may differ. Like-named read-outs stand apart in the source and are kept apart here.

Key:
[1] = tested on: healthy Japanese subjects; test: Thorough QT/QTc study: 12-lead ECG assessment of QTcF/QTcB; type: in vivo, human; details: for Upper bound of the 90% two-sided CI of the least squares mean ΔΔQTcB: all time points, data not shown; for Upper bound of the 90% two-sided CI for the least squares mean ΔΔQTcF: single dose, all time points 0.5-24 h post-dose; for Least squares mean ΔΔQTcF: moxifloxacin 400 mg single dose
Description: The study was conducted at Kitasato Institute Hospital (Tokyo, Japan) from July 6th 2011 to September 15th 2011. […] All treatments were administered with 200 mL of water after at least 10-hour overnight fast, and no food was allowed until 4 hours after dosing. All treatments were administered in a randomized sequence. The random assignment manager randomly assigned treatment groups using the Williams Design to determine the order of treatments within each treatment sequence by the time of study drug administration to the first admission group. A randomization code was created for each treatment sequence sealed and securely retained until unblinding and were provided to the sponsor after unblinding.
Serial triplicate digital 12-lead electrocardiograms (ECGs) were recorded over 5 min in the supine position after resting for 10 min for each time point (pre-dose [50–70 min before dosing], 0.5, 1, 2, 3, 4, 6, 8, and 24 h post-dose) using an electrocardiograph (ELI250, Mortara). The same model of 12-lead digital surface ECG monitor was employed for all subjects at all time points. The same lead was used throughout the study. The interval between the start of each recording was ≥1 min, and ECG was recorded for 10 s for each chart. All 12-lead ECG charts for QT/QTc analysis were sent electronically to the central ECG analysis facility. RR and QT intervals were measured in accordance with the procedures of the facility. The time of recording and subject identification information were blinded before measurement. QTc intervals were corrected by Fridericia’s (QTcF = QT/RR^1/3) and Bazett’s (QTcB = QT/RR^1/2) formulae. QTcF was the primary endpoint, and QTcB was the secondary endpoint.
Treatment comparisons between luseogliflozin therapeutic dose or supratherapeutic dose and placebo (ΔΔQTc) were analyzed using a linear mixed model with treatment, sequence, period, scheduled time, and the interaction of treatment with scheduled time as fixed effects, subject as a random effect, and baseline QTc as a covariate. The effect of luseogliflozin on QT/QTc interval prolongation was regarded as negative when the upper bound of the 90% two-sided confidence interval (CI) for the mean effect on the QT/QTc interval […] 10 ms at all time points in the luseogliflozin groups.
A categorical analysis was also performed. New onset of QTc greater than 450, 480, or 500 ms after dosing or change from baseline in QTc greater than 30 or 60 ms was categorized in each treatment group.

[2] = tested on: healthy Japanese subjects; test: Safety assessment (adverse events, vital signs, ECG, laboratory tests); type: in vivo, human; details: for Tolerability: single dose of luseogliflozin 5 mg and 20 mg
Description: Safety assessments included recording of adverse events, vital signs (body temperature, blood pressure, and pulse rate), physical examinations, ECGs, and clinical laboratory tests.

[3] = tested on: human ether-a-go-go-related gene (hERG) current; test: hERG current in hERG-transfected HEK293 cells in vitro; type: cell-based; details: versus Cmax of a 5 mg dose in diabetic subjects in a clinical study
Description: In non-clinical studies, effects of luseogliflozin on the cardiovascular system were investigated via the human ether-a-go-go-related gene (hERG) current in hERG-transfected human embryonic kidney cells (HEK293 cells) in vitro; action potential in the papillary muscle of anesthetized guinea pigs; and blood pressure, heart rate, and electrocardiogram (ECG) in conscious beagle dogs.

[4] = human, in vivo, po
Description: (§1) The plasma concentrations of luseogliflozin and its metabolites were determined by two separate methods at JCL Bioassay Corp. (Hyogo, Japan). Luseogliflozin, its metabolites and its deuterium-labeled internal standard (luseogliflozin-d5, M2-d5 and M17-d5, Taisho Pharmaceutical Co. Ltd., Japan) were extracted from plasma by solid phase extraction. Extracts were analysed by LC-MS/MS. The lower limit of quantification (LLOQ) for luseogliflozin and its metabolites (M2 and M17) in plasma were 0.05 and 0.1 ng/mL, respectively. […] Extracts were analysed by LC-MS/MS. […] Summary statistics were provided for the pharmacokinetic parameters by treatment group.

[5] = tested on: human ether-a-go-go-related gene (hERG) current; details: at 9.6 μmol/L; non-clinical study; cited from earlier work
[6] = tested on: papillary muscle of anesthetized guinea pigs; details: non-clinical study; cited from earlier work
conscious beagle dogs = details: non-clinical study; cited from earlier work
[7] = cited from earlier work
[8] = tested on: Japanese patients with type 2 diabetes mellitus; details: cited from earlier work
SGLT2 = details: read-out: 50% inhibitory concentration (IC50); SGLT2, human expressing cells, nonclinical study; cited from earlier work
SGLT1 = details: read-out: 50% inhibitory concentration (IC50); SGLT1, human expressing cells, nonclinical study; cited from earlier work
rats = details: 26-week repeated dose; cited from earlier work
dogs = details: 52-week repeated dose; cited from earlier work
clinical = details: human, in vivo, po
Description: as §1

[9] = luseogliflozin 20 mg (supratherapeutic dose)
[10] = TS-071 25 mg single oral dose, healthy adult males, ref Investigator's Brochure of TS-071 (Version 6)

In the case of `CCOc1ccc(Cc2cc([C@@H]3S[C@H](CO)[C@@H](O)[C@H](O)[C@H]3O)c(OC)cc2C)cc1` [Luseogliflozin, (1S)-1,5-anhydro-1-[5-(4-ethoxybenzyl)-2-methoxy-4-methylphenyl]-1-thio-D-glucitol], the “Upper bound of the 90% two-sided CI of the least squares mean ΔΔQTcB” value ([1]; luseogliflozin 5 mg (anticipated therapeutic dose)) is reported as less than 10 ms, the “Upper bound of the 90% two-sided CI for the least squares mean ΔΔQTcF” value ([1]; luseogliflozin 5 mg (therapeutic dose)) is reported as “less than 10 ms” and the “Correlation between ΔΔQTcF and plasma concentration of unchanged compound” value ([1]; luseogliflozin 5 mg and 20 mg) is reported as “No meaningful correlation; also recorded: no relationship”. The “Hysteresis of mean ΔΔQTcF versus mean plasma concentration” value ([1]; luseogliflozin 5 mg and 20 mg) was “no clear hysteresis effect”, the “Number (%) of Subjects, QTcF Increase >30 ms from baseline” value ([1]; luseogliflozin 5 mg, n = 56) was 0 (0.0) n (%) and the “Number (%) of Subjects, QTcF Increase >60 ms from baseline” value ([1]; luseogliflozin 5 mg, n = 56) was 0 (0.0) n (%). The “Number (%) of Subjects, QTcF Value >450 ms” value ([1]; luseogliflozin 5 mg, n = 56) was 1 (1.8) n (%), the “Number (%) of Subjects, QTcF Value >480 ms” value ([1]; luseogliflozin 5 mg, n = 56) was 0 (0.0) n (%) and the “Number (%) of Subjects, QTcF Value >500 ms” value ([1]; luseogliflozin 5 mg, n = 56) was 0 (0.0) n (%). For the same compound, the “Upper bound of the 90% two-sided CI for the least squares mean ΔΔQTcF” value [1, 9] was “less than 10 ms”, the “Upper bound of the 90% two-sided CI of the least squares mean ΔΔQTcB” value [1, 9] was less than 10 ms and the “Number (%) of Subjects, QTcF Increase >30 ms from baseline” value ([1]; luseogliflozin 20 mg, n = 53) was 0 (0.0) n (%). The “Number (%) of Subjects, QTcF Increase >60 ms from baseline” value ([1]; luseogliflozin 20 mg, n = 53) was 0 (0.0) n (%), the “Number (%) of Subjects, QTcF Value >450 ms” value ([1]; luseogliflozin 20 mg, n = 53) was 0 (0.0) n (%) and the “Number (%) of Subjects, QTcF Value >480 ms” value ([1]; luseogliflozin 20 mg, n = 53) was 0 (0.0) n (%). The “Number (%) of Subjects, QTcF Value >500 ms” value ([1]; luseogliflozin 20 mg, n = 53) was 0 (0.0) n (%), the “Adverse events moderate in severity, number of events” value ([2]; 5 mg luseogliflozin group) was “two” and the “Subjects with first-degree atrioventricular block” value ([2]; 5 mg luseogliflozin group) was “one”. For the same compound, the “Prolonged PR interval in the subject with first-degree atrioventricular block” value ([2]; 48 h after administration of luseogliflozin 5 mg, one subject) was 452 ms, the “Relation of cardiovascular adverse events to the study drug” value ([2]; after administration of luseogliflozin) was “not related to the study drug” and the “Percentage of subjects with an adverse event” value (“Percentage of subjects” for short) ([2]; luseogliflozin 5 mg group) was 41.1%. The “AEs, n (number of events)” value ([2]; luseogliflozin 5 mg, n = 56) was 48 n, the “Drug-related AEs, n (number of events)” value ([2]; luseogliflozin 5 mg, n = 56) was 20 n and the “Percentage of subjects” value ([2]; luseogliflozin 20 mg group) was 35.8%. The “AEs, n (number of events)” value ([2]; luseogliflozin 20 mg, n = 53) was 32 n, the “Drug-related AEs, n (number of events)” value ([2]; luseogliflozin 20 mg, n = 53) was 16 n and the Tolerability [2] was “well tolerated”. The Tolerability ([2]; listed as luseogliflozin) was “safe and well tolerated”, the “Ratio of hERG test concentration (9.6 μmol/L) to the maximum observed Cmax” value [3] was “approximately 370 times” and the Tmax ([4]; 5 mg) was 1.34 ± 0.935 h. The T1/2 ([4]; 20 mg) was 9.90 ± 1.22 h, the “Suppression of hERG current” value [5] was 7.7% and the “Effect on the cardiovascular system” value [6] was “No effect”. The “Effect on the cardiovascular system” value (conscious beagle dogs) was “No effect”, the “Mean Tmax” value ([7]; TS-071 15 mg single oral dose, healthy adult males, ref Investigator's Brochure of TS-071 (Version 6)) was 1.56 h and the “Mean T1/2” value [7, 10] was 12.6 h. For the same compound, the “Mean Tmax” value [7, 10] was 2.25 h, the “Time to maximum plasma concentration (Tmax)” value ([7]; single dose 1–25 mg) was no more than 2.25 h and the “Urinary glucose excretion in comparison to placebo” value ([8]; 0.5, 1, 2.5 and 5 mg/day, Japanese patients with type 2 diabetes mellitus) was “significantly increased”. For the same compound, the “Observed Cmax of unchanged TS-071” value ([8]; Day 7, 7-day repeated administration of 5 mg, patients with type 2 diabetes) was 299 ng/mL, the IC50 (SGLT2) was 0.00226 µM and the IC50 (SGLT1) was 2.9 µM. For the same compound, the “Dose levels with diarrhoea or soft stools” value (rats) was no less than 100 mg/kg, the “No observed adverse effect level” value (rats) was 4 mg/kg and the “Dose levels with diarrhoea or soft stools” value (dogs) was no less than 10 mg/kg. For the same compound, the “No observed adverse effect level” value (dogs) was 2 mg/kg, the AUC(0-inf) (clinical; 5 mg) was 2110 ± 418 ng·h/mL and the Cmax (clinical; 5 mg) was 209 ± 48.9 ng/mL. It also gave a half-life (clinical; 5 mg) of 10 ± 1.18 h, a Tmax (clinical; 5 mg) of 1.3 h and an AUC(0-inf) (clinical; 20 mg) of 8650 ± 1780 ng·h/mL. The Cmax (clinical; 20 mg) was 787 ± 186 ng/mL and the Tmax (clinical; 20 mg) was 1.5 ± 0.961 h.

Compound `COc1cc(C)c(Cc2ccc(O)cc2)cc1[C@@H]1S[C@H](CO)[C@@H](O)[C@H](O)[C@H]1O` [M2] has an AUCinf ([4]; 5 mg) of 257 ± 48.3 ng·h/mL, a Cmax ([4]; 5 mg) of 8.85 ± 1.95 ng/mL and a T1/2 ([4]; 5 mg) of 13.8 ± 2.61 h. It also gave a Tmax ([4]; 5 mg) of 5.71 ± 2.14 h, an AUCinf ([4]; 20 mg) of 1030 ± 212 ng·h/mL and a Cmax ([4]; 20 mg) of 35.1 ± 7.36 ng/mL. For the same compound, the T1/2 ([4]; 20 mg) was 13.9 ± 2.53 h and the Tmax ([4]; 20 mg) was 5.83 ± 1.90 h.

Compound `COc1cc(C)c(Cc2ccc(OCC(=O)O)cc2)cc1[C@@H]1S[C@H](CO)[C@@H](O)[C@H](O)[C@H]1O` [M17] has an AUCinf ([4]; 5 mg) of 120 ± 41.9 ng·h/mL, a Cmax ([4]; 5 mg) of 6.02 ± 2.10 ng/mL and a T1/2 ([4]; 5 mg) of 10.9 ± 1.49 h. The Tmax ([4]; 5 mg) was 4.89 ± 1.14 h, the AUCinf ([4]; 20 mg) was 487 ± 196 ng·h/mL and the Cmax ([4]; 20 mg) was 24.3 ± 9.98 ng/mL. The T1/2 ([4]; 20 mg) was 10.9 ± 1.71 h and the Tmax ([4]; 20 mg) was 5.13 ± 1.14 h.

For `COc1c(N2C[C@@H]3CCCN[C@@H]3C2)c(F)cc2c(=O)c(C(=O)O)cn(C3CC3)c12` [Moxifloxacin, moxifloxacin, reference compound], the “Correlation between ΔΔQTcF and plasma concentration of unchanged compound” value ([1]; moxifloxacin 400 mg) was “positive relationship; also recorded: positive correlation”, the “Hysteresis of mean ΔΔQTcF versus mean plasma concentration” value ([1]; moxifloxacin 400 mg) was “counter-clockwise hysteresis effect; also recorded: counterclockwise hysteresis” and the “Least squares mean ΔΔQTcF” value ([1]; 3 and 4 hour post-dose) was 13.4 ms. For the same compound, the “Least squares mean ΔΔQTcF” value ([1]; 24 h post-dose) was 7.7 ms, the “Number (%) of Subjects, QTcF Increase >30 ms from baseline” value ([1]; moxifloxacin 400 mg, n = 54) was 0 (0.0) n (%) and the “Number (%) of Subjects, QTcF Increase >60 ms from baseline” value ([1]; moxifloxacin 400 mg, n = 54) was 0 (0.0) n (%). The “Number (%) of Subjects, QTcF Value >450 ms” value ([1]; moxifloxacin 400 mg, n = 54) was 7 (13.0) n (%), the “Number (%) of Subjects, QTcF Value >480 ms” value ([1]; moxifloxacin 400 mg, n = 54) was 0 (0.0) n (%) and the “Number (%) of Subjects, QTcF Value >500 ms” value ([1]; moxifloxacin 400 mg, n = 54) was 0 (0.0) n (%). The “Number (%) of Subjects, QTcF Value >450 ms” value ([1]; moxifloxacin 400 mg, n = 54, listed as moxifloxacin) was 7 n (%), the “Regression of ΔΔQTcF (msec) on plasma concentration (μg/mL)” value ([1]; moxifloxacin 400 mg, text in Fig 6) was “ΔΔQTcF = 3.42+3.03xConc” and the “Percentage of subjects” value ([2]; moxifloxacin 400 mg group) was 72.2%. The “AEs, n (number of events)” value ([2]; moxifloxacin 400 mg, n = 54) was 56 n, the “Drug-related AEs, n (number of events)” value ([2]; moxifloxacin 400 mg, n = 54) was 36 n and the Tmax ([4]; 400 mg) was 2.19 ± 1.09 h. The AUC(0-inf) (clinical; 400 mg) was 60000 ± 11100 ng·h/mL, the Cmax (clinical; 400 mg) was 3880 ± 939 ng/mL and the Tmax (clinical; 400 mg) was 2.2 h.
